Data set [1] is described as follows: Mouse plasma concentration after oral administration. It counts as in vivo. The settings on record: average of three mice; for concentration at 4 h: 4 h after oral gavage at 100 mg/kg; for concentration at 0.5 h: 0.5 h after oral gavage at 100 mg/kg.
In another data set the test system is MCF-7:Tam1 tumors. Put plainly: MCF-7:TAM1 xenograft model of endocrine-resistant ER+ breast cancer. It counts as in vivo, ovariectomized athymic nude mice. The following applies: 100 mg/kg daily by oral gavage; GDN-0810 at day 23 after treatment.
The next data set concerns the target T1, estrogen receptor (Homo sapiens, UniProt P03372).
T1 construct: Whole-cell extracts of cultured cells were prepared in lysis buffer; endogenous in cells
T1 sequence (P03372 1-595): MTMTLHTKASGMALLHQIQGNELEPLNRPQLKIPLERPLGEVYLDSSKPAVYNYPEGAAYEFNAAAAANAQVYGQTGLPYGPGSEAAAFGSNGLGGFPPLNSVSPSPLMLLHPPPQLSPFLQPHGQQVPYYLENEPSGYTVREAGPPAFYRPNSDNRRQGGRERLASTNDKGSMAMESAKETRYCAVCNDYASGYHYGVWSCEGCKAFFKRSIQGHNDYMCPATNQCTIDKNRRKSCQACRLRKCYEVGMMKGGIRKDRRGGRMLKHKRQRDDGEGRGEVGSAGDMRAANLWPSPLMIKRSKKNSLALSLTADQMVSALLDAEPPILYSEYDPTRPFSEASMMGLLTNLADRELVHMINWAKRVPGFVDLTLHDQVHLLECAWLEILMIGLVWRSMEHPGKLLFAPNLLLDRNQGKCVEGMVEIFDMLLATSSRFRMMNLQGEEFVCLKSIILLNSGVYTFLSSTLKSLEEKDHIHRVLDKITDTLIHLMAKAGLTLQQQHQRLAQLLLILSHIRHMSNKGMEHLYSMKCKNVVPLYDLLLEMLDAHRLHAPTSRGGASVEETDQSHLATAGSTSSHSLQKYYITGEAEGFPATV
The experiment in a line: Western blot of estrogen receptor downregulation (FIG. 4). Format: cell-based. The settings on record: 10 nM concentrations. On the procedure: Whole-cell extracts of cultured cells were prepared in lysis buffer (200 mmol/L Tris, 1% Triton X-100, 5 mmol/L; EDTA) with protease and phosphatase inhibitor cocktails (1:50, both from Sigma-Aldrich) after scraping from the culture plates. Protein concentration was measured using the Bradford method (Bio-Rad). Proteins were separated under denaturing conditions and blotted onto nitrocellulose membrane (Bio-Rad) using a wet transfer system (Bio-Rad). Images of blots were acquired on a Bio-Rad ChemiDoc System following incubation with SuperSignal West Dura luminol solution (Thermo Fisher Scientific).
For orientation: Immunoblotting shows a protein as a band on a membrane.

A further data set has as its target T2, ERα (Homo sapiens, UniProt P03372).
T2 construct: MCF-7:WS8 cells were kept in stripped medium 2 days; endogenous in cells; host or cells: MCF-7:WS8
T2 sequence (P03372 1-595): T1 sequence (P03372 1-595)
Put plainly: ER downregulation/degradation by in-cell western (ICW) in MCF-7:WS8 cells. Format: cell-based. The following applies: Table 2; read-out: IC50 of ER downregulation from in-cell western blot experiments.

The source of these data is US10807964B2, “Benzothiophene-based selective estrogen receptor downregulators” (The Board of Trustees of the University of Illinois, priority 2015, dated 2020).

In data set [1], `Cc1cc(Cl)cc(C)c1C(=O)c1sc2cc(O)ccc2c1Oc1ccc(/C=C/C(=O)O)cc1` [Compound 21, (E)-3-(4-((2-(4-Chloro-2,6-dimethylbenzoyl)-6-hydroxybenzo[b]thiophen-3-yl)oxy)phenyl) acrylic acid] had a concentration at 4 h of 858 nM.
Take `CC/C(=C(\c1ccccc1)c1ccc(OCCN(C)C)cc1)c1ccccc1` [Tamoxifen]: the “Regression of tumor size (tumor area reduction)” value in the data set with MCF-7:Tam1 tumors is recorded as “entirely without effect”.
As to `Cc1ccc(F)cc1C(=O)c1sc2cc(O)ccc2c1Oc1ccc(/C=C/C(=O)O)cc1` [Compound 6, (E)-3-(4-((2-(5-Fluoro-2-methylbenzoyl)-6-hydroxybenzo[b]thiophen-3-yl)oxy)phenyl) acrylic acid], the “Estrogen receptor downregulation, western blot” value (from here on “Estrogen receptor downregulation”) at estrogen receptor is reported as “downregulate the estrogen receptor”.
`Cc1cc(F)cc(C)c1C(=O)c1sc2cc(O)ccc2c1Oc1ccc(/C=C/C(=O)O)cc1` [Compound 20, (E)-3-(4-((2-(4-Fluoro-2,6-dimethylbenzoyl)-6-hydroxybenzo[b]thiophen-3-yl)oxy)phenyl) acrylic acid]: in data set [1], the concentration at 0.5 h came to 9720 nM and the concentration at 4 h was found to be 164 nM.
In data set [1], `Cc1cccc(C)c1C(=O)c1sc2cc(O)ccc2c1Oc1ccc(/C=C/C(=O)O)cc1` [Compound 11, (E)-3-(4-((2-(2,6-Dimethylbenzoyl)-6-hydroxybenzo[b]thiophen-3-yl)oxy)phenyl) acrylic acid] came in with a concentration at 0.5 h of 1010 nM and a concentration at 4 h of 0.5 nM.
For the molecule `Cc1ccccc1C(=O)c1sc2cc(O)ccc2c1Oc1ccc(/C=C/C(=O)O)cc1` [Compound 5, (E)-3-(4-((6-Hydroxy-2-(2-methylbenzoyl)benzo[b]thiophen-3-yl)oxy)phenyl) acrylic acid], in data set [1], the concentration at 0.5 h stood at 5580 nM and the concentration at 4 h is 47 nM. Further, the “Estrogen receptor downregulation” value at estrogen receptor is recorded as “downregulate the estrogen receptor”.
With `Cc1ccsc1C(=O)c1sc2cc(O)ccc2c1Oc1ccc(/C=C/C(=O)O)cc1` [Compound 7, (E)-3-(4-((6-Hydroxy-2-(3-methylthiophene-2-carbonyl)benzo[b]thiophen-3-yl)oxy)phenyl) acrylic acid], the “Estrogen receptor downregulation” value at estrogen receptor is “downregulate the estrogen receptor”.
As to `O=C(O)/C=C/c1ccc(Oc2c(C(=O)c3ccccc3)sc3cc(O)ccc23)cc1` [Compound 4, (E)-3-(4-((2-Benzoyl-6-hydroxybenzo[b]thiophen-3-yl)oxy)phenyl) acrylic acid], at ERα, the DC50 came out at 5 nM.
In the case of `CCc1ccccc1C(=O)c1sc2cc(O)ccc2c1Oc1ccc(/C=C/C(=O)O)cc1` [Compound 3, (E)-3-(4-((2-(2-Ethylbenzoyl)-6-hydroxybenzo[b]thiophen-3-yl)oxy)phenyl) acrylic acid], the “Estrogen receptor downregulation” value on estrogen receptor is reported as “downregulate the estrogen receptor”.
For the molecule `Cc1ccc(C(=O)c2sc3cc(O)ccc3c2Oc2ccc(/C=C/C(=O)O)cc2)c(C)c1` [Compound 12, (E)-3-(4-((2-(2,4-Dimethylbenzoyl)-6-hydroxybenzo[b]thiopben-3-yl)oxy)phenyl) acrylic acid], in data set [1], the concentration at 0.5 h stood at 3870 nM and the concentration at 4 h turned out to be 432 nM.
With `Cc1cc(F)ccc1C(=O)c1sc2cc(O)ccc2c1Oc1ccc(/C=C/C(=O)O)cc1` [Compound 1, (E)-3-(4-((2-(4-Fluoro-2-methylbenzoyl)-6-hydroxybenzo[b]thiophen-3-yl)oxy)phenyl)acrylic acid], in data set [1], the concentration at 0.5 h was determined as 1240 nM and the concentration at 4 h stood at 145 nM. In addition, the “Estrogen receptor downregulation” value on estrogen receptor is reported as “downregulate the estrogen receptor”.
